Results on eight molecules are retold here after patent publication US5744444A, “HPTH-fragment-(1-37), the preparation thereof, medicaments containing same and the use thereof” (HaemoPep Pharma GmbH, priority 1989, dated 1998).

One series relates to hPTH-(44-68)-RIA. Particulars: synthetic hPTH peptides; data provided by the producer (Immundiagnostik); cited from earlier work.
Series [1] is described as follows: secondary structure by UV circular dichroism. Format: physicochemical. Particulars: 50 μg/ml, 10 mM Tris-HCl buffer pH 7.5, room temperature, 190-240 nm; calculated by the method of Reed and Kinzel. As to the method:
The circular dichroism was measured by means of a Jasco J-500 Automatic Recording Spectropolarimeter coupled with a Jasco DP-500 Data Processor. For the determination of the secondary structure, the measurement was carried out in the spectral range of from 190 nm to 240 nm at room temperature in a selected quartz cuvette at a light path of 1 mm. The parathormone concentrations employed were 50 μg/ml of hPTH-(1-33), 50 μg/ml of hPTH-(1-37) and 50 μg/ml of hPTH-(1-38). 10 mM Tris-HCl buffer pH 7.5 was used for dissolution (other conditions of the measurement: Sensitivity 2 milli-degrees/cm; time constant 2 seconds; recorder speed: 4 nm/min; wave length expansion: 5 nm/cm). The curves in FIG. 13 for hPTH-(1-33) hPTH-(1-37) and hPTH-(1-38) are average values for the signals from 4 subsequent measurements minus the base line values.
The evaluation for determining the secondary structure was performed in accordance with the method described by Reed and Kinzel (Biochemistry 23, 1357-1362, 1984).

The test system of a further series is hPTH-(53-84)-RIA. The note with it: synthetic hPTH peptides; data provided by the producer (Immundiagnostik); cited from earlier work.

On to “hPTH-(53-84): synthetic hPTH peptide, standard of the C-terminal RIA (KKEDNVLVESHEKSLGEADKADVNVLTKAKSQ; Parathyroid hormone; UniProt P01270 84-115, looked up, fragment)”, for which, in the series on hPTH-(44-68)-RIA, the “cross-reaction in the hPTH-(44-68)-RIA” value is on record as 100%. For “hPTH-(1-33): synthetic N-terminal human PTH fragment, comparison peptide (SVSEIQLMHNLGKHLNSMERVEWLRKKLQDVHN; Parathyroid hormone; UniProt P01270 32-64, looked up, fragment)”, the “α-helix proportion of the secondary structure” value in series [1] is “similarly low as in hPTH-(1-38)”. Still for that read-out and setting: for “hPTH-(1-38): known synthetic amino-terminal partial sequence of human PTH, comparison peptide (SVSEIQLMHNLGKHLNSMERVEWLRKKLQDVHNFVALG; Parathyroid hormone; UniProt P01270 32-69, looked up, fragment)” the value was “about 27%”.

“hPTH-(1-34): known synthetic amino-terminal partial sequence of human PTH (SVSEIQLMHNLGKHLNSMERVEWLRKKLQDVHNF; Parathyroid hormone; UniProt P01270 32-65, looked up, fragment)”: in the series with hPTH-(44-68)-RIA, the “cross-reaction in the hPTH-(44-68)-RIA” value is on record as “do not show any cross-reaction”. The “cross-reaction in the hPTH-(53-84)-RIA” value in the series with hPTH-(53-84)-RIA is “do not show any cross-reaction”. In the case of “hPTH-(44-68): synthetic hPTH peptide, standard of the medium-regional RIA (RDAGSQRPRKKEDNVLVESHEKSLG; Parathyroid hormone; UniProt P01270 75-99, looked up, fragment)”, the “cross-reaction in the hPTH-(53-84)-RIA” value with hPTH-(53-84)-RIA is reported as “do not show any cross-reaction”.

“hPTH-(64-84): synthetic hPTH peptide tested for cross-reaction in the RIAs (EKSLGEADKADVNVLTKAKSQ; Parathyroid hormone; UniProt P01270 95-115, looked up, fragment)”: the “cross-reaction in the hPTH-(44-68)-RIA” value in the series on hPTH-(44-68)-RIA was “do not show any cross-reaction”. Moreover, in the series with hPTH-(53-84)-RIA, the “cross-reaction in the hPTH-(53-84)-RIA” value was 100%. As to “hPTH-(28-48): synthetic hPTH peptide tested for cross-reaction in the RIAs (LQDVHNFVALGAPLAPRDAGS; Parathyroid hormone; UniProt P01270 59-79, looked up, fragment)”, in the series with hPTH-(44-68)-RIA, the “cross-reaction in the hPTH-(44-68)-RIA” value was “do not show any cross-reaction”. In the series on hPTH-(53-84)-RIA, the “cross-reaction in the hPTH-(53-84)-RIA” value is “do not show any cross-reaction”.

B1: hPTH-(1-84): the secreted PTH molecule consisting of 84 amino acids (peptide, UniProt P01270 32-115, looked up)
Parathyroid hormone: SVSEIQLMHNLGKHLNSMERVEWLRKKLQDVHNFVALGAPLAPRDAGSQRPRKKEDNVLVESHEKSLGEADKADVNVLTKAKSQ
modifications: Parathyroid hormone
notes: the secreted PTH molecule consisting of 84 amino acids
Consider B1, for which the “cross-reaction in the hPTH-(44-68)-RIA” value in the series on hPTH-(44-68)-RIA is recorded as 100%. The “cross-reaction in the hPTH-(53-84)-RIA” value with hPTH-(53-84)-RIA is on record as 100%.
